# Results: patent US7169789B2 (Kirin Beer Kabushiki Kaisha, priority 1999, dated 2007)
# pIC50: −log10 of the molar value.
# How the values were obtained:
# [1] = test system: Human glioma cells GL07; assay: Antitumor effect on human glioma cells (GL07) transplanted into nude mice; format: in vivo; settings: GL07, oral, 20 mg/kg once a day for 9 days; for inhibition in vivo at 20 mg/kg: Mus musculus, Glioma cell, 216 h, read-out: TGIR, % (tumor growth inhibition rate)
# Procedure: Antitumor Effect on Human Glioma Cells (GL07)
# Human glioma cells GL07 (obtained from Central Laboratories for Experimental Animals) were transplanted into nude mice. When the tumor volume became about 100 mm^3, the mice were grouped. In this case, grouping was carried out so that each group consisted of four mice and the average tumor volume was even among the groups. The test compound was orally or intraperitoneally administered at a dose of 20 mg/kg to the test groups every day once a day for 9 days, while the medium was administered to the control group in the manner as in the test groups. The tumor growth inhibition rate (TGIR) was calculated as follows: The tumor growth inhibition rate (TGIR)=(1−Tx/Cx)×100 wherein Cx represents the volume of tumor at day x for the control group when the tumor volume at the day of the start of the administration was presumed to be 1; and Tx represents the volume of tumor for test compound administration groups.
# [2] = biological target: T1, human KDR (Homo sapiens, UniProt P35968); assay: Inhibitory activity against KDR phosphorylation by ELISA; format: cell-based; settings: NIH 3T3 cells transfected with human KDR, VEGF 100 ng/ml
# T1 construct: expressed in transfected cells; host or cells: NIH 3T3 cells (Sawano A et al., Cell Growth & Differentiation 7, 213-221 (1996))
# T1 sequence (P35968 20-1356): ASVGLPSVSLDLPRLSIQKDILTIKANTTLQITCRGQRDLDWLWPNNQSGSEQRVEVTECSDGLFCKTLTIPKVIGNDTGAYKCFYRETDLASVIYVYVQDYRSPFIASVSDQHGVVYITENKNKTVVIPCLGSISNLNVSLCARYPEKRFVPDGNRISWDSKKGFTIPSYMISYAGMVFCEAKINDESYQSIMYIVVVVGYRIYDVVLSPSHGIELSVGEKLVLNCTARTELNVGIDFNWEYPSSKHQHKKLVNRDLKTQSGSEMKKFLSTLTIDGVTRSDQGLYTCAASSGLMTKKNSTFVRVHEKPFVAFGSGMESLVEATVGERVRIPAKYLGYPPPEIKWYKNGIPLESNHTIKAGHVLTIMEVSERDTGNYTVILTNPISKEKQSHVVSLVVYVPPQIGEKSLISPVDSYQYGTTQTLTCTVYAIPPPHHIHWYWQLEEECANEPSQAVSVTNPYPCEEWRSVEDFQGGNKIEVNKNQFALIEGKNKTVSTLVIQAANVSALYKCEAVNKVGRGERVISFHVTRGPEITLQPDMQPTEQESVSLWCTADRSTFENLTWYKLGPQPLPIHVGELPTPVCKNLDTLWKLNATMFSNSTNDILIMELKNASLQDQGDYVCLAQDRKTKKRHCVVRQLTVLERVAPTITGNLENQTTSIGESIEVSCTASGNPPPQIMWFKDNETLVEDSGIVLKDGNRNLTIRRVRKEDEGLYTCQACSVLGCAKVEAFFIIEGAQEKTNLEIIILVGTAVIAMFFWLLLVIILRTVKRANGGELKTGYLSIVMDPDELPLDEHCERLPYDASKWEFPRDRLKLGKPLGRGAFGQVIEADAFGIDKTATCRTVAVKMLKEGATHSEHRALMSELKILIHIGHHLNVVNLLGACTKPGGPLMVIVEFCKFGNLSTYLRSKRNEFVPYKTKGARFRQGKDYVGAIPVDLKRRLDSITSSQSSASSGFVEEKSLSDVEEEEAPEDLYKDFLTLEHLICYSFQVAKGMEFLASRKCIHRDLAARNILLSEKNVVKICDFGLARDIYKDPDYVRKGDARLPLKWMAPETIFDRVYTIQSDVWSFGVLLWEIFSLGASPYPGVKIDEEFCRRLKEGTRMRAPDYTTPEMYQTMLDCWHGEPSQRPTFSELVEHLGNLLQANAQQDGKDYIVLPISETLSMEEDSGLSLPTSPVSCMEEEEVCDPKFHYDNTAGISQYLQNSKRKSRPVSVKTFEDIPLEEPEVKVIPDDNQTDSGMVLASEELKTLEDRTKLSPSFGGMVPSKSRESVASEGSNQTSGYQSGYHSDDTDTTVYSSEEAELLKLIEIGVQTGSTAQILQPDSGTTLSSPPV
# Procedure: Measurement of Inhibitory Activity Against KDR Phosphorylation by ELISA
# NIH 3T3 cells (Sawano A et al., Cell Growth & Differentation, 7, 213–221 (1996), “Flt-1 but not KDR/Flk-1 tyrosine kinase is a receptor for placenta growth factor, which is related to vascular endothelial growth factor”) prepared by transfection of human KDR were cultured in a DMEM medium containing 10% fetal calf serum (purchased from GIBCO BRL) within a 5% carbon dioxide incubator until 50 to 70% confluent. The harvested cells were inoculated into wells, containing the same medium, in a collagen-type one-coat 96-well flat-bottom plate in an amount of 1.5×10^4 per well, followed by cultivation at 37° C. overnight. The medium was then replaced by a DMEM medium containing 0.1% fetal calf serum. A solution of the test compound in dimethyl sulfoxide was added to each well, and the cultivation was continued at 37° C. for additional one hr. A human recombinant vascular endothelial growth factor (hereinafter abbreviated to “VEGF”) was added to a final concentration of 100 ng/ml, and the stimulation of cells was carried out at 37° C. for 2 min. The medium was removed, the cells were washed with phosphate buffered saline (pH 7.4), and 50 μl of a solubilization buffer (20 mM HEPES (pH 7.4), 150 mM NaCl, 0.2% Triton X-100, 10% glycerol, 5 mM sodium orthovanadylate, 5 mM disodium ethylenediaminetetraacetate, and 2 mM Na4P2O7) was then added thereto. The mixture was shaken at 4° C. for 2 hr to prepare a cell extract.
# Separately, phosphate buffered saline (50 μl, pH 7.4) containing […] of anti-phospho-tyrosine antibody (PY20; purchased from Transduction Laboratories) was added to a microplate for ELISA (Maxisorp; purchased from NUNC), followed by standing at 4° C. overnight to form a solid phase on the wells. After washing of the plate, 300 μl of a blocking solution was added, followed by standing at room temperature for 2 hr to perform blocking. After washing, the whole quantity of the cell extract was transferred to the wells, and the plate was then allowed to stand at 4° C. overnight. After washing, an anti-KDR antibody (purchased from Santa Cruz) was allowed to react at room temperature for one hr, and, after washing, a peroxidase-labeled anti-rabbit Ig antibody (purchased from Amersham) was allowed to react at room temperature for one hr. After washing, a chromophoric substrate for peroxidase (purchased from Sumitomo Bakelite Co., Ltd.) was added thereto to initiate a reaction. After a suitable level of color development, a reaction termination solution was added to stop the reaction, and the absorbance at 450 nm was measured with a microplate reader. The KDR phosphorylation activity for each well was determined by presuming the absorbance with the addition of VEGF and without the addition of the medicament to be 100% KDR phosphorylation activity and the absorbance without the medicament and VEGF to be 0% KDR phosphorylation activity. The concentration of the test compound was varied on several levels, the inhibition (%) of KDR phosphorylation was determined for each case, and the concentration of the test compound necessary for inhibiting 50% of KDR phosphorylation (IC50) was calculated.
smiles,measurement,setting,value
"CCCNC(=O)Nc1ccc(Oc2ccnc3cc(OCCCN4CCOCC4)c(OC)cc23)cc1Cl [Example 151, N-(2-chloro-4-{[6-methoxy-7-(3-morpholinopropoxy)-4-quinolyl]oxy}phenyl)-N′-propylurea]",inhibition in vivo at 20 mg/kg,[1],44%
same,pIC50,[2],9.30
"CCCNC(=O)Nc1ccc(Oc2ccnc3cc(OCCCN4CCN(C)CC4)c(OC)cc23)cc1Cl [Example 152, N-[2-chloro-4-(6-methoxy-7-{[3-(4-methylpiperazino)propoxy]-4-quinolyl}oxy)phenyl]-N′-propylurea]",inhibition in vivo at 20 mg/kg,[1],44%
same,pIC50,[2],9.10
"CCCNC(=O)Nc1ccc(Oc2ccnc3cc(OCCCn4ccnn4)c(OC)cc23)cc1Cl [Example 153, N-[2-chloro-4-(6-methoxy-7-{[3-(1H-1,2,3-triazol-1-yl)propoxy]-4-quinolyl}oxy)phenyl]-N′-propylurea]",inhibition in vivo at 20 mg/kg,[1],53%
same,pIC50,[2],8.82
"CCCNC(=O)Nc1ccc(Oc2ccnc3cc(OCCCn4ccnc4)c(OC)cc23)cc1Cl [Example 154, N-[2-Chloro-4-({7-[3-(1H-1-imidazolyl)-propoxy]-6-methoxy-4-guinolyl}oxy)phenyl]-N′-propylurea]",inhibition in vivo at 20 mg/kg,[1],34%
same,pIC50,[2],8.82
"CCCNC(=O)Nc1ccc(Oc2ccnc3cc(OCCN(CCO)CCO)c(OC)cc23)cc1Cl [Example 155, N-{2-Chloro-4-[(7-{2-[di(2-hydroxyethyl)-amino]ethoxy}-6-methoxy-4-guinolyl)oxy]phenyl}-N-propylurea]",inhibition in vivo at 20 mg/kg,[1],29%
same,pIC50,[2],8.68
"CCCNC(=O)Nc1ccc(Oc2ccnc3cc(OCCCN(CCO)CCO)c(OC)cc23)cc1Cl [Example 156, N-{2-Chloro-4-[(7-{3-[di(2-hydroxyethyl)-amino]propoxy}-6-methoxy-4-guinolyl)oxy]phenyl}-N′-propylurea]",inhibition in vivo at 20 mg/kg,[1],24%
same,pIC50,[2],9.10
"CCCNC(=O)Nc1ccc(Oc2ccnc3cc(OCCCN(C)CCO)c(OC)cc23)cc1Cl [Example 157, N-{2-chloro-4-[(7-{3-[(2-hydroxyethyl)-(methyl)amino]propoxy}-6-methoxy-4-quinolyl)oxy]-phenyl}-N′-propylurea]",inhibition in vivo at 20 mg/kg,[1],44%
same,pIC50,[2],9.40
"CCCNC(=O)Nc1ccc(Oc2ccnc3cc(OCCCCn4ccnn4)c(OC)cc23)cc1Cl [Example 158, N-[2-Chloro-4-({6-methoxy-7-[4-(1H-1,2,3-triazol-1-yl)butoxy]-4-guinolyl}oxy)phenyl]-N′-propylurea]",inhibition in vivo at 20 mg/kg,[1],39%
same,pIC50,[2],8.80
"CCCNC(=O)Nc1ccc(Oc2ccnc3cc(OCCCCCn4ccnn4)c(OC)cc23)cc1Cl [Example 159, N-{2-chloro-4-[(6-methoxy-7-{[5-(1H-1,2,3-triazol-1-yl)pentyl]oxy}-4-quinolyl)oxy]phenyl}-N′-propylurea]",inhibition in vivo at 20 mg/kg,[1],40%
same,pIC50,[2],8.72
"CCCNC(=O)Nc1ccc(Oc2ccnc3cc(OCCCCn4ccnc4)c(OC)cc23)cc1Cl [Example 160, N-[2-chloro-4-(7-{[4-(1H-1-imidazolyl)-butoxy]-6-methoxy-4-quinolyl}oxy)phenyl]-N′-propylurea]","TGIR, % (tumor growth inhibition rate)",[1],43%
same,pIC50,[2],9.05
"COc1cc2c(Oc3ccc(NC(=O)Nc4ccc(F)cc4F)c(Cl)c3)ncnc2cc1OCc1ccncc1 [Example 161, N-(2-Chloro-4-{[6-methoxy-7-(4-pyridylmethoxy)-4-quinazolinyl]oxy}phenyl)-N′-(2,4-difluorophenyl)urea]",inhibition in vivo at 20 mg/kg,[1],39%
same,pIC50,[2],8.41
"COc1cc2c(Oc3ccc(NC(=O)Nc4ccc(F)cc4F)c(Cl)c3)ncnc2cc1OCCN1CCOCC1 [Example 162, N-(2-chloro-4-{[6-methoxy-7-(2-morpholinoethoxy)-4-quinazolinyl]oxy}phenyl)-N′-(2,4-difluorophenyl)urea]",inhibition in vivo at 20 mg/kg,[1],40%
same,pIC50,[2],9.00
"COc1cc2c(Oc3ccc(NC(=O)Nc4ccc(F)cc4F)c(Cl)c3)ncnc2cc1OCCCN1CCOCC1 [Example 163, N-(2-chloro-4-{[6-methoxy-7-(3-morpholinopropoxy)-4-quinazolinyl]oxy}phenyl)-N′-(2,4-difluorophenyl)urea]",inhibition in vivo at 20 mg/kg,[1],52%
same,pIC50,[2],8.85
"COc1cc2c(Oc3ccc(NC(=O)Nc4ccc(F)cc4F)c(Cl)c3)ncnc2cc1OCCCN1CCN(C)CC1 [Example 164, N-[2-chloro-4-(6-methoxy-7-{[3-(4-methylpiperazino)propoxy]-4-quinazolinyl}oxy)phenyl]-N′-(2,4-difluorophenyl)urea]","TGIR, % (tumor growth inhibition rate)",[1],55%
same,pIC50,[2],9.05
"COc1cc2c(Oc3ccc(NC(=O)Nc4ccc(F)cc4F)c(Cl)c3)ncnc2cc1OCCCN(C)CCO [Example 165, N-{2-chloro-4-[(7-{3-[(2-hydroxyethyl)-(methyl)amino]propoxy}-6-methoxy-4-quinazolinyl)oxy]-phenyl}-N′-(2,4-difluorophenyl)urea]",inhibition in vivo at 20 mg/kg,[1],44%
same,pIC50,[2],9.22
"COc1cc2c(Oc3ccc(NC(=O)Nc4ccc(F)cc4F)c(Cl)c3)ccnc2cc1OCCN1CCN(C)CC1 [Example 166, N-[2-Chloro-4-({6-methoxy-7-[2-(4-methylpiperazino)ethoxy]-4-guinolyl}oxy)phenyl]-N′-(2,4-difluorophenyl)urea]",inhibition in vivo at 20 mg/kg,[1],27%
same,pIC50,[2],8.66
"COc1cc2c(Oc3ccc(NC(=O)Nc4ccc(F)cc4F)c(Cl)c3)ccnc2cc1OCCN(C)CCO [Example 167, N-{2-Chloro-4-[(7-{2-[(2-hydroxyethyl)-(methyl)amino]ethoxy}-6-methoxy-4-guinolyl)oxy]phenyl}-N′-(2,4-difluorophenyl)urea]",inhibition in vivo at 20 mg/kg,[1],28%
same,pIC50,[2],8.68
"COc1cc2c(Oc3ccc(NC(=O)Nc4ccc(F)cc4F)c(Cl)c3)ccnc2cc1OCCCN1CCOCC1 [Example 168, N-(2-chloro-4-{[6-methoxy-7-(3-morpholinopropoxy)-4-quinolyl]oxy}phenyl)-N′-(2,4-difluorophenyl)-urea]",inhibition in vivo at 20 mg/kg,[1],42%
same,pIC50,[2],8.40
"COc1cc2c(Oc3ccc(NC(=O)Nc4ccc(F)cc4F)c(Cl)c3)ccnc2cc1OCc1cccnc1 [Example 169, N-(2-chloro-4-{[6-methoxy-7-(3-pyridylmethoxy)-4-quinolyl]oxy}phenyl)-N′-(2,4-difluorophenyl)urea]",inhibition in vivo at 20 mg/kg,[1],55%
same,pIC50,[2],8.43
"COc1cc2c(Oc3ccc(NC(=O)Nc4ccc(F)cc4F)c(Cl)c3)ccnc2cc1OCCn1ccnn1 [Example 170, N-[2-chloro-4-(6-methoxy-7-{[2-(1H-1,2,3-triazol-1-yl)ethoxy]-4-quinolyl}oxy)phenyl]-N′-(2,4-difluorophenyl)urea]","TGIR, % (tumor growth inhibition rate)",[1],64%
same,pIC50,[2],8.96
"CCNC(=O)Nc1cc(C)c(Oc2ccnc3cc(OCCN4CCOCC4)c(OC)cc23)cc1C [Example 175, N-Ethyl-N′-(4-{[6-methoxy-7-(2-morpholinoethoxy)-4-guinolyl]oxy}-2,5-dimethylphenyl)urea]",inhibition in vivo at 20 mg/kg,[1],17%
same,pIC50,[2],8.33
"CCCNC(=O)Nc1cc(C)c(Oc2ccnc3cc(OCCCN4CCN(C)CC4)c(OC)cc23)cc1C [Example 176, N-[4-({6-Methoxy-7-[3-(4-methylpiperazino)-propoxy]-4-guinolyl}oxy)-2,5-dimethylphenyl]-N′-propylurea]",inhibition in vivo at 20 mg/kg,[1],22%
same,pIC50,[2],8.43
